Data from patent US20150094474A1, “AGRICULTURAL CHEMICALS” (Redx Pharma Ltd., priority 2012, published 2015).

How the values were obtained:
peas = assay: Herbicidal bioassay, peas (% necrosis); format: in vivo
Method in brief: (§1)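 Scoring of % necrosis followed EPPO guideline PP1/135 at specified growth intervals, five replicates per species and treatment. Plants at the 2-4 true leaf stage received Potter-tower sprays of DMSO-diluted compounds across six levels from 0.0001% to 0.05%, with water and DMSO controls.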

barley = assay: Herbicidal bioassay, barley (% necrosis); format: in vivo
Method in brief: as §1

COc1cc(OC)nc(NC(=O)NS(=O)(=O)c2cc(CNS(C)(=O)=O)ccc2COC(C)=O)n1 [Compound 61, [2-[(4,6-Dimethoxypyrimidin-2-yl)carbamoylsulfamoyl]-4-(methanesulfonamidomethyl)phenyl]methylacetate]
Sum of % necrosis in Pea (peas; Dose 0.000001, Day 0): C (less than 50% necrosis) | Sum of % necrosis in Pea (peas; Dose 0.000001, Day 1): C (less than 50% necrosis) | Sum of % necrosis in Pea (peas; Dose 0.000001, Day 3): C (less than 50% necrosis) | Sum of % necrosis in Pea (peas; Dose 0.000001, Day 7): C (less than 50% necrosis) | Sum of % necrosis in Pea (peas; Dose 0.000001, Day 10): C (less than 50% necrosis) | Sum of % necrosis in Pea (peas; Dose 0.000001, Day 14): C (less than 50% necrosis) | Sum of % necrosis in Pea (peas; Dose 0.000005, Day 0): C (less than 50% necrosis) | Sum of % necrosis in Pea (peas; Dose 0.000005, Day 1): C (less than 50% necrosis) | Sum of % necrosis in Pea (peas; Dose 0.000005, Day 3): C (less than 50% necrosis) | Sum of % necrosis in Pea (peas; Dose 0.000005, Day 7): C (less than 50% necrosis) | Sum of % necrosis in Pea (peas; Dose 0.000005, Day 10): C (less than 50% necrosis) | Sum of % necrosis in Pea (peas; Dose 0.000005, Day 14): C (less than 50% necrosis) | Sum of % necrosis in Pea (peas; Dose 0.00001, Day 0): C (less than 50% necrosis) | Sum of % necrosis in Pea (peas; Dose 0.00001, Day 1): C (less than 50% necrosis) | Sum of % necrosis in Pea (peas; Dose 0.00001, Day 3): C (less than 50% necrosis) | Sum of % necrosis in Pea (peas; Dose 0.00001, Day 7): C (less than 50% necrosis) | Sum of % necrosis in Pea (peas; Dose 0.00001, Day 10): C (less than 50% necrosis) | Sum of % necrosis in Pea (peas; Dose 0.00001, Day 14): B (50%-80% necrosis) | Sum of % necrosis in Pea (peas; Dose 0.00005, Day 0): C (less than 50% necrosis) | Sum of % necrosis in Pea (peas; Dose 0.00005, Day 1): C (less than 50% necrosis) | Sum of % necrosis in Pea (peas; Dose 0.00005, Day 3): C (less than 50% necrosis) | Sum of % necrosis in Pea (peas; Dose 0.00005, Day 7): C (less than 50% necrosis) | Sum of % necrosis in Pea (peas; Dose 0.00005, Day 10): B (50%-80% necrosis) | Sum of % necrosis in Pea (peas; Dose 0.00005, Day 14): B (50%-80% necrosis) | Sum of % necrosis in Pea (peas; Dose 0.0001, Day 0): C (less than 50% necrosis) | Sum of % necrosis in Pea (peas; Dose 0.0001, Day 1): C (less than 50% necrosis) | Sum of % necrosis in Pea (peas; Dose 0.0001, Day 3): C (less than 50% necrosis) | Sum of % necrosis in Pea (peas; Dose 0.0001, Day 7): C (less than 50% necrosis) | Sum of % necrosis in Pea (peas; Dose 0.0001, Day 10): C (less than 50% necrosis) | Sum of % necrosis in Pea (peas; Dose 0.0001, Day 14): C (less than 50% necrosis) | Sum of % necrosis in Pea (peas; Dose 0.0005, Day 0): C (less than 50% necrosis) | Sum of % necrosis in Pea (peas; Dose 0.0005, Day 1): C (less than 50% necrosis) | Sum of % necrosis in Pea (peas; Dose 0.0005, Day 3): C (less than 50% necrosis) | Sum of % necrosis in Pea (peas; Dose 0.0005, Day 7): B (50%-80% necrosis) | Sum of % necrosis in Pea (peas; Dose 0.0005, Day 10): B (50%-80% necrosis) | Sum of % necrosis in Pea (peas; Dose 0.0005, Day 14): A (over 80% necrosis) | Sum of % necrosis in barley (barley; Dose 0.000001, Day 0): C (less than 50% necrosis) | Sum of % necrosis in barley (barley; Dose 0.000001, Day 1): C (less than 50% necrosis) | Sum of % necrosis in barley (barley; Dose 0.000001, Day 3): C (less than 50% necrosis) | Sum of % necrosis in barley (barley; Dose 0.000001, Day 7): C (less than 50% necrosis) | Sum of % necrosis in barley (barley; Dose 0.000001, Day 10): C (less than 50% necrosis) | Sum of % necrosis in barley (barley; Dose 0.000001, Day 14): C (less than 50% necrosis) | Sum of % necrosis in barley (barley; Dose 0.000005, Day 0): C (less than 50% necrosis) | Sum of % necrosis in barley (barley; Dose 0.000005, Day 1): C (less than 50% necrosis) | Sum of % necrosis in barley (barley; Dose 0.000005, Day 3): C (less than 50% necrosis) | Sum of % necrosis in barley (barley; Dose 0.000005, Day 7): C (less than 50% necrosis) | Sum of % necrosis in barley (barley; Dose 0.000005, Day 10): C (less than 50% necrosis) | Sum of % necrosis in barley (barley; Dose 0.000005, Day 14): C (less than 50% necrosis) | Sum of % necrosis in barley (barley; Dose 0.00001, Day 0): C (less than 50% necrosis) | Sum of % necrosis in barley (barley; Dose 0.00001, Day 1): C (less than 50% necrosis) | Sum of % necrosis in barley (barley; Dose 0.00001, Day 3): C (less than 50% necrosis) | Sum of % necrosis in barley (barley; Dose 0.00001, Day 7): C (less than 50% necrosis) | Sum of % necrosis in barley (barley; Dose 0.00001, Day 10): C (less than 50% necrosis) | Sum of % necrosis in barley (barley; Dose 0.00001, Day 14): C (less than 50% necrosis) | Sum of % necrosis in barley (barley; Dose 0.00005, Day 0): C (less than 50% necrosis) | Sum of % necrosis in barley (barley; Dose 0.00005, Day 1): C (less than 50% necrosis) | Sum of % necrosis in barley (barley; Dose 0.00005, Day 3): C (less than 50% necrosis) | Sum of % necrosis in barley (barley; Dose 0.00005, Day 7): C (less than 50% necrosis) | Sum of % necrosis in barley (barley; Dose 0.00005, Day 10): C (less than 50% necrosis) | Sum of % necrosis in barley (barley; Dose 0.00005, Day 14): C (less than 50% necrosis) | Sum of % necrosis in barley (barley; Dose 0.0001, Day 0): C (less than 50% necrosis) | Sum of % necrosis in barley (barley; Dose 0.0001, Day 1): C (less than 50% necrosis) | Sum of % necrosis in barley (barley; Dose 0.0001, Day 3): C (less than 50% necrosis) | Sum of % necrosis in barley (barley; Dose 0.0001, Day 7): C (less than 50% necrosis) | Sum of % necrosis in barley (barley; Dose 0.0001, Day 10): C (less than 50% necrosis) | Sum of % necrosis in barley (barley; Dose 0.0001, Day 14): C (less than 50% necrosis) | Sum of % necrosis in barley (barley; Dose 0.0005, Day 0): C (less than 50% necrosis) | Sum of % necrosis in barley (barley; Dose 0.0005, Day 1): C (less than 50% necrosis) | Sum of % necrosis in barley (barley; Dose 0.0005, Day 3): C (less than 50% necrosis) | Sum of % necrosis in barley (barley; Dose 0.0005, Day 7): C (less than 50% necrosis) | Sum of % necrosis in barley (barley; Dose 0.0005, Day 10): C (less than 50% necrosis) | Sum of % necrosis in barley (barley; Dose 0.0005, Day 14): C (less than 50% necrosis)
